Assay results from US5861476A, “Peptides and compounds that bind to the IL-1 receptor” (Affymax Technologies N.V., priority 1995, dated 1999).
pIC50: −log10 of the molar value. Read-outs that look alike come from different tables or passages of the source. Where a SMILES comes first, the peptide text is derived from it. Where no end group is shown, it is not given here. [ ]: non-standard residue; d: D form. Bpa = N[C@@H](Cc1ccc(C(=O)c2ccccc2)cc1)C(=O)O; 1Nal = N[C@@H](Cc1cccc2ccccc12)C(=O)O; Pip = O=C(O)[C@@H]1CCCCN1; Aze = O=C(O)[C@@H]1CCN1; Sar = CNCC(=O)O

Target: T1, IL-1RtI (Homo sapiens, UniProt P14778)
T1 construct: made in house; host or cells: recombinant host cells (one form soluble from baculovirus transformed host cells; another PIG-tailed and cleaved from the cell surface)
T1 sequence (P14778 18-336): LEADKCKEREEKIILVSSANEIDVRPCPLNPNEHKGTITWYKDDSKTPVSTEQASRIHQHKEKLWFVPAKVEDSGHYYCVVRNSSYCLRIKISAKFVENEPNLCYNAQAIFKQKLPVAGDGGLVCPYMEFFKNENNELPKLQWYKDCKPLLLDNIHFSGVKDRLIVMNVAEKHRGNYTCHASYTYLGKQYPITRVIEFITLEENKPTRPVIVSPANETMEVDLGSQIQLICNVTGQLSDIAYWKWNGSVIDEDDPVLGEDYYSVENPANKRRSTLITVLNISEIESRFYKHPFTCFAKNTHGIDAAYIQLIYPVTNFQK
Experiment: Inhibition of 125I-IL-1α binding to IL-1RtI (Example 3)
Experimental: This example provides the results of experiments conducted to determine an approximate IC50 for certain peptides of the invention. IC50 as used herein refers to the concentration of a compound which will inhibit 50% of the binding between a receptor and its ligand, e.g. IL-1RtI and IL-1. Stock solutions of each peptide were prepared. The appropriate amount of the peptide was dissolved in DMSO, and then nineteen volumes of binding buffer (RPMI 1640, 1% BSA, 20 mM HEPES, pH 7.2-7.3, and 0.1% sodium azide) were added to yield a 1 mM peptide, 5% DMSO stock solution.
One assay utilized a truncated IL-1RtI which had been immobilized on 96-well plates with an appropriate antibody, typically a non-blocking high affinity antibody. In other assays, cells expressing "full-length" IL-1RtI were used with results that yielded IC50 values about 5 to 10 fold lower than those determined using the truncated receptor. The cells were seeded onto Falcon 3072 96-well plates at about 10^5 cells per well, and the plates were incubated overnight at 37° C. in media containing serum. The following morning, the cells were checked to ensure that the cells were confluent and adhered to the bottom of the wells.
According to either assay protocol, the plates were then washed three times with binding buffer, and then 50 μl of binding buffer and 25 μl of a peptide solution (either the stock solution or a dilution thereof; each stock was subjected to five three fold dilutions) were added to each well. Then 25 μl of binding buffer containing ^125 I-IL-1α (final concentration of 90 pM) were added to each well to begin the assay. Each assay was carried out in duplicate. The plates were then incubated for two hours at 4° C. For peptides having particularly high affinities, the assay was run in 24 well plates allowing for higher levels of ligand (possible total volume of 2.5 ml instead of 100 μl in the 96 well plate), thereby minimizing the potential for ligand depletion.
After the two hour incubation, the wells were rinsed three times with ice cold PBS (a semi-automated cell harvesting device was used to conduct the rinse). The receptors or cells were then detached from the plates by adding 100 μl of 0.1N NaOH to each well and incubating the plates at room temperature for 20 minutes. After the 20 minute incubation, about 75 μl of the suspension was counted on a gamma counter, and the IC50 for each peptide was determined using computer assistance and the results of the gamma counting.

[1] = inhibition of 125I-IL-1α binding to IL-1RtI, soluble peptide unless marked *

| Molecule | pIC50 [1] | pIC50 |
| --- | --- | --- |
| VWYWEQPYALPL [VWYWEQ PYALPL] | ≥ 4.00 | – |
| YWYQPYALGL [YWYQPYALGL] | ≥ 4.00 | – |
| EWTPGYWQPY-NH2 [EWTPGYWQPY--NH2] | ≥ 4.00 | – |
| C[C@@H](O)[C@H](NC(=O)[C@H](Cc1c[nH]c2ccccc12)NC(=O)[C@H](CCC(=O)O)NC(=O)[C@@H](N)Cc1ccccc1)C(=O)N1CCC[C@H]1C(=O)NCC(=O)N[C@@H](Cc1ccc(O)cc1)C(=O)N[C@@H](Cc1ccc(C(=O)c2ccccc2)cc1)C(=O)N[C@@H](CCC(N)=O)C(=O)N1CC[C@H]1C(=O)N[C@@H](Cc1ccc(O)cc1)C(N)=O [FEWTPGY--Bpa--QJY--NH2] (H-FEWTPGY[Bpa]Q[Aze]Y-NH2) | ≥ 6.30 | – |
| TIIWEQPYALPL [TIIWEQ PYALPL] | ≥ 4.00 | – |
| SWHSVYWQPYSVQSVPE [SWHS VYWQPYSVQ SVPE] | ≥ 4.00 | – |
| FEWTPGYWQPY-NH2 [FEWTPGYWQPY--NH2] | ≥ 6.30 | – |
| C[C@@H](O)[C@H](NC(=O)[C@H](Cc1c[nH]c2ccccc12)NC(=O)[C@H](CCC(=O)O)NC(=O)[C@@H](N)Cc1ccccc1)C(=O)N1CCC[C@H]1C(=O)N[C@H](CO)C(=O)N[C@@H](Cc1ccc(O)cc1)C(=O)N[C@@H](Cc1ccc(O)cc1)C(=O)N[C@@H](CCC(N)=O)C(=O)N1CC[C@H]1C(=O)N[C@@H](Cc1ccc(O)cc1)C(N)=O [FEWTPsYYQJY-NH2] (H-FEWTP[dS]YYQ[Aze]Y-NH2) | – | > 6.30 |
| WGNWWQPYSVHR [WGNWWQPYSVHR] | < 4.00 | – |
| C[C@@H](O)[C@H](NC(=O)[C@H](Cc1c[nH]c2ccccc12)NC(=O)[C@H](CCC(=O)O)NC(=O)[C@@H](N)Cc1ccccc1)C(=O)N1CCC[C@@H]1C(=O)NCC(=O)N[C@@H](Cc1ccc(O)cc1)C(=O)N[C@@H](Cc1c[nH]c2ccccc12)C(=O)N[C@@H](CCC(N)=O)C(=O)N1CC[C@H]1C(=O)N[C@@H](Cc1ccc(O)cc1)C(N)=O [FEWTpGYWQJY--NH2] (H-FEWT[dP]GYWQ[Aze]Y-NH2) | ≥ 6.30 | – |
| GWWQPYARGL [GWWQPYARGL] | ≥ 4.00 | – |
| DNSSWYDSFLL [DNSSWYDSFLL] | ≥ 4.00 | – |
| RWWQPYATPL [RWWQPYATPL] | ≥ 4.00 | – |
| SWTDYGYWQPYALPISGL [SWTDYG YWQPYA LPISGL] | ≥ 6.30 | – |
| RSLYWQPYALPL [RSLYWQ PYALPL] | ≥ 4.00 | – |
| FYEWWQPYALPL [FYEWWQ PYALPL] | ≥ 4.00 | – |
| VYWQPYSVQ [VYWQPYSVQ] | ≥ 4.00 | – |
| GVVWYQPYALPL [GVVWYQ PYALPL] | < 4.00 | – |
| C[C@@H](O)[C@H](NC(=O)[C@H](Cc1c[nH]c2ccccc12)NC(=O)[C@H](CCC(=O)O)NC(=O)[C@@H](N)Cc1ccccc1)C(=O)N1CCC[C@H]1C(=O)NCC(=O)N[C@@H](Cc1ccc(C(=O)c2ccccc2)cc1)C(=O)N[C@@H](Cc1ccc(O)cc1)C(=O)N[C@@H](CCC(N)=O)C(=O)N1CC[C@H]1C(=O)N[C@@H](Cc1ccc(O)cc1)C(N)=O [FEWTPG--Bpa--YQJY--NH2] (H-FEWTPG[Bpa]YQ[Aze]Y-NH2) | ≥ 6.30 | – |
| EGWWVQPYALPL [EGWWVQ PYALPL] | ≥ 4.00 | – |
| C[C@@H](O)[C@H](NC(=O)[C@H](Cc1c[nH]c2ccccc12)NC(=O)[C@H](CCC(=O)O)NC(=O)[C@@H](N)Cc1ccccc1)C(=O)N1CC[C@H]1C(=O)NCC(=O)N[C@@H](Cc1ccc(O)cc1)C(=O)N[C@@H](Cc1c[nH]c2ccccc12)C(=O)N[C@@H](CCC(N)=O)C(=O)N1CC[C@H]1C(=O)N[C@@H](Cc1ccc(O)cc1)C(N)=O [FEWTJGYWQJY--NH2] (H-FEWT[Aze]GYWQ[Aze]Y-NH2) | ≥ 6.30 | – |
| AHTWWQPYALPL [AHTWWQ PYALPL] | ≥ 4.00 | – |

| Molecule | pIC50 [1] | pIC50 |
| --- | --- | --- |
| C[C@@H](O)[C@H](NC(=O)[C@H](Cc1c[nH]c2ccccc12)NC(=O)[C@H](CCC(=O)O)NC(=O)[C@@H](N)Cc1cccc2ccccc12)C(=O)N1CCC[C@H]1C(=O)NCC(=O)N[C@@H](Cc1ccc(O)cc1)C(=O)N[C@@H](Cc1ccc(O)cc1)C(=O)N[C@@H](CCC(N)=O)C(=O)N1CC[C@H]1C(=O)N[C@@H](Cc1ccc(O)cc1)C(N)=O [1Nap--EWTPGYYQJY--NH2] (H-[1Nal]EWTPGYYQ[Aze]Y-NH2) | ≥ 6.30 | – |
| TYTYDNTAWYERFLMSY [TYTYDNTAWYERFLMSY] | – | > 6.30 |
| C[C@@H](O)[C@H](NC(=O)[C@H](Cc1c[nH]c2ccccc12)NC(=O)[C@H](CCC(=O)O)NC(=O)[C@@H](N)Cc1ccccc1)C(=O)N(C)CC(=O)NCC(=O)N[C@@H](Cc1ccc(O)cc1)C(=O)N[C@@H](Cc1c[nH]c2ccccc12)C(=O)N[C@@H](CCC(N)=O)C(=O)N1CC[C@H]1C(=O)N[C@@H](Cc1ccc(O)cc1)C(N)=O [FEWTSarGYWQJY--NH2] (H-FEWT[Sar]GYWQ[Aze]Y-NH2) | ≥ 6.30 | – |
| DSYWWQPYALPL [DSYWWQ PYALPL] | ≥ 4.00 | – |
| C[C@@H](O)[C@H](NC(=O)[C@H](Cc1c[nH]c2ccccc12)NC(=O)[C@H](CCC(=O)O)NC(=O)[C@@H](N)Cc1ccccc1)C(=O)N1CCCC[C@H]1C(=O)NCC(=O)N[C@@H](Cc1ccc(O)cc1)C(=O)N[C@@H](Cc1c[nH]c2ccccc12)C(=O)N[C@@H](CCC(N)=O)C(=O)N1CC[C@H]1C(=O)N[C@@H](Cc1ccc(O)cc1)C(N)=O [FEWTPecGYWQJY--NH2] (H-FEWT[Pip]GYWQ[Aze]Y-NH2) | ≥ 6.30 | – |
| NSYFWQPYALPL [NSYFWQ PYALPL] | ≥ 4.00 | – |
| FIEWFQPYALPL [FIEWFQ PYALPL] | ≥ 4.00 | – |
| GWTQPYSQQGEV [GWTQPYSQQGEV] | ≥ 4.00 | – |
| DYVWQQPYALPL [DYVWQQ PYALPL] | ≥ 4.00 | – |
| FTWEESNAYYWQPY-NH2 [FTWEESNAYYWQPY-NH2] | – | > 6.30 |
| SDIWYQPYALPL [SDIWYQ PYALPL] | ≥ 4.00 | – |
| WWQPYALPL [WWQPYALPL] | ≥ 4.00 | – |
| WLAWEQPYALPL [WLAWEQ PYALPL] | ≥ 4.00 | – |
| CC(C)[C@H](NC(=O)[C@@H](NC(=O)[C@H](Cc1c[nH]c2ccccc12)NC(=O)[C@H](CCC(=O)O)NC(=O)[C@@H](N)Cc1ccccc1)[C@@H](C)O)C(=O)N1CCC[C@H]1C(=O)N[C@@H](Cc1ccc(O)cc1)C(=O)N[C@@H](Cc1c[nH]c2ccccc12)C(=O)N[C@@H](CCC(N)=O)C(=O)N1CC[C@H]1C(=O)N[C@@H](Cc1ccc(O)cc1)C(N)=O [FEWTVPYWQJY--NH2] (H-FEWTVPYWQ[Aze]Y-NH2) | ≥ 4.00 | – |
| C[C@@H](O)[C@H](NC(=O)[C@H](Cc1c[nH]c2ccccc12)NC(=O)[C@H](CCC(=O)O)NC(=O)[C@@H](N)Cc1ccccc1)C(=O)N1CCC[C@H]1C(=O)N(C)CC(=O)N[C@@H](Cc1c[nH]c2ccccc12)C(=O)N[C@@H](Cc1ccc(O)cc1)C(=O)N[C@@H](CCC(N)=O)C(=O)N1CC[C@H]1C(=O)N[C@@H](Cc1ccc(O)cc1)C(N)=O [FEWTPSarWYQJY--NH2] (H-FEWTP[Sar]WYQ[Aze]Y-NH2) | ≥ 6.30 | – |
| DNTAWYENFLL [DNTAWYENFLL] | ≥ 4.00 | – |
| C[C@@H](O)[C@H](NC(=O)[C@H](Cc1c[nH]c2ccccc12)NC(=O)[C@H](CCC(=O)O)NC(=O)[C@@H](N)Cc1ccccc1)C(=O)N1CCC[C@H]1C(=O)N[C@@H](CC(N)=O)C(=O)N[C@@H](Cc1ccc(O)cc1)C(=O)N[C@@H](Cc1c[nH]c2ccccc12)C(=O)N[C@@H](CCC(N)=O)C(=O)N1CC[C@H]1C(=O)N[C@@H](Cc1ccc(O)cc1)C(N)=O [FEWTPNYWQJY--NH2] (H-FEWTPNYWQ[Aze]Y-NH2) | ≥ 6.30 | – |
| PWIQPYARGFG [PWIQPYARGFG] | ≥ 4.00 | – |
| AHLFWQPYSVQR [AHLFWQPYSVQR] | ≥ 4.00 | – |
| NMVYWQPYSIQT [Peptide 3H7, NMVYWQPYSIQT] | ≥ 4.00 | – |
| VIEWWQPYALPL [VIEWWQ PYALPL] | ≥ 4.00 | – |
| TLIYWQPYSVQI [TLIYWQPYSVQI] | ≥ 4.00 | – |
